How the values were obtained:
[1] = pKa of chelating agents and catechin (Table 1); format: physicochemical
Description: Chelation is a type of bonding of ions and molecules to metal ions. It involves the formation or presence of two or more separate coordinate bonds between a ligand and a metal atom. Without being bound by theory, the stain removal effectiveness of a composition comprising one or more chelating agents may depend at least in part on the ability of the chelating agent(s) to bind to iron, which may be present in some stains, such as fruit or beverage stains. Several factors may impact a chelating agent's ability to bind to iron. These factors may include the pKa of the chelating agent compared to the wash pH, and the affinity of the chelating agent to bind with other metals, materials, or compositions in the wash.
Various embodiments may provide or employ a composition that comprises one or more chelating agents having a pKa that is less than the wash pH.

[2] = calcium binding efficiency, logK(β110); format: physicochemical; settings: one metal, one ligand, no protons
Description: (§1) The binding efficiencies may be expressed as a binding constant. A binding constant (also called formation constant or stability constant) is an equilibrium constant for the formation of a complex in solution. It is a measure of the strength of the interaction between the reagents that come together to form the complex. As an example, various stains may comprise catechins as shown in Formula 13.
(§2) The chelating agent(s) according to various embodiments may, therefore, be selected to ensure a lower binding efficiency with calcium and a higher binding efficiency with iron at the wash pH.
(§3) In Table 1, the reaction between metals and ligands is described in terms of logK(β110). In this context, K, is the equilibrium constant for the reaction between ligands and metals. The higher K, the more metal is bound. This is illustrated in the following example.
(§4) β, represents the binding efficiency and receives some subscripts (βmlh) to indicate how many metals (m), ligands (l), and protons (h) respectively are involved.

[3] = iron binding efficiency, logK(β110); format: physicochemical; settings: one metal, one ligand, no protons
Description: as §1, §2, §3, §4

[4] = Example 1 stain removal in tergotometer wash, unit dose compositions at pH 7.0/8.5/10.0; settings: treatments with pH<10.0; tropolone compared to HEDP or no chelating agent
Description: Image analysis may be used to compare each stain to an unstained fabric control. Software may be used to convert images taken into standard colorimetric values and to compare these to standards based on the commonly used Macbeth Color Rendition Chart, assigning each stain a colorimetric value (Stain Level). The CIELAB color space, also referred to as L*a*b*, is a color space defined by the International Commission on Illumination (abbreviated CIE) in 1976.[a] It expresses color as three values: L* for perceptual lightness and a* and b* for the four unique colors of human vision: red, green, blue and yellow. The lightness value, L* defines black at 0 and white at 100. The a* axis is relative to the green-magenta opponent colors, with negative values toward green and positive values toward magenta. The b* axis represents the blue-yellow opponents, with negative numbers toward blue and positive toward yellow. In the following examples, various fabrics were analyzed using commercially available image analysis software for L*a*b* values. SRI values were then calculated from the L*a*b* values using the formula shown. The higher the SRI, the better the stain removal. […] One dose of detergent treatment, as detailed in Table 3 below, was added to a tergotometer and was evaluated using the Washing Method.

[5] = Example 3 stain removal in tergotometer wash, synthetic fabric; settings: polyester, vs HEDP
Description: Image analysis may be used to compare each stain to an unstained fabric control. Software may be used to convert images taken into standard colorimetric values and to compare these to standards based on the commonly used Macbeth Color Rendition Chart, assigning each stain a colorimetric value (Stain Level). The CIELAB color space, also referred to as L*a*b*, is a color space defined by the International Commission on Illumination (abbreviated CIE) in 1976.[a] It expresses color as three values: L* for perceptual lightness and a* and b* for the four unique colors of human vision: red, green, blue and yellow. The lightness value, L* defines black at 0 and white at 100. The a* axis is relative to the green-magenta opponent colors, with negative values toward green and positive values toward magenta. The b* axis represents the blue-yellow opponents, with negative numbers toward blue and positive toward yellow. In the following examples, various fabrics were analyzed using commercially available image analysis software for L*a*b* values. SRI values were then calculated from the L*a*b* values using the formula shown. The higher the SRI, the better the stain removal. […]

Structure (SMILES) | pKa ([1]; fourth listed pKa) | pKa ([1]; second listed pKa) | pKa ([1]; third listed pKa) | Ca^2+ logK(β110) [2] | Ca^2+ logK(β110) ([2]; listed as catechins) | Fe (III) logK(β110) [3] | Fe (III) logK(β110) ([3]; listed as catechins) | pKa ([1]; first listed pKa) | stain removal performance (in words) [4] | stain removal on synthetics fabric (in words) [5]
Oc1cc(O)c2c(c1)OC(c1ccc(O)c(O)c1)C(O)C2 (stereo not shown) [Catechin] | 13.4 | 9.5 | 11.2 | 3.5 | about 3.5 | 19.2 | about 19.2 |  |  | 
CC(C)c1cccc(=O)c(O)c1 [Hinokitiol, 2-Hydroxy-6-(propan-2-yl)cyclohepta-2,4,6-trien-1-one] |  |  |  | 2.2 |  | 12.9 |  | about 7 | improved stain removal performance | significantly improved stain removal
O=c1cccccc1O [Tropolone, 2-Hydroxycyclohepta-2,4,6-trien-1-one] |  |  |  | 3.1 |  | 10.5 |  |  | improved stain removal performance | significantly improved stain removal
CC(O)(P(=O)(O)O)P(=O)(O)O [HEDP, 1-Hydroxyethylidene-1,1-diphosphonic acid] | 10.3 | 2.5 | 7.3 | 6.8 |  | 14.1 |  | 1.7 |  | 

From patent US20250011687A1, “BIODEGRADABLE CHELATING AGENTS AND METHODS FOR FABRIC CARE” (The Procter & Gamble Company, priority 2023, published 2025)
